The record followed here is EPA's ToxValDB 9.5 (doi:10.2903/j.efsa.2010.1704).

Molecules are shown by their SMILES. Values after ≈ are worked out from the molar mass of the structure shown. Where only a bound is given, the exact number is not on record here.

The subject of one data set is Canidae. The note with it: oral, Dog Other, organ weight.
For a further data set, the system named is Coturnix japonica. The note with it: reproduction developmental.
A further data set has as its system Typhlodromus pyri. The note with it: acute; duration: 7 days; mortality.
The subject of the next data set is Oryctolagus sp. The note with it: reproduction developmental; body weight.
The subject of a further data set is Colinus virginianus. The note with it: acute, oral, mortality.
The next data set deals with Oncorhynchus mykiss. The note with it: acute; duration: 96 hours; mortality.
For a further data set, the system named is Daphnia magna. The note with it: chronic/long-term; duration: 21 days; reproduction.
The subject of the next data set is Anas platyrhynchos. The note with it: oral, mortality.
The test system of another data set is Apis mellifera. The note with it: acute; duration: 48 hours; oral; unspecified; mortality.
Another data set has as its system Pimephales promelas. The note with it: chronic/long-term; duration: 35 days; growth.

As a reminder, the NOAEL is the highest tested level that showed no adverse finding.

As for `Clc1ccc(C2(Cn3cncn3)CC(Br)CO2)c(Cl)c1` (stereo not given) [Bromuconazole], the NOAEL with Canidae (chronic, duration: 1 years) turned out to be 2.5 mg/kg-day; in the data set with Canidae (subchronic, duration: 90 days), 2.5 mg/kg-day; in the data set with Rattus norvegicus (chronic, duration: 2 years, oral, diet, histopathology: nonneoplastic), 0.88 mg/kg-day; with Rattus norvegicus (developmental, development) it was 10 mg/kg-day. For the same compound, the NOEC is 26.5 mg/kg-day in the data set with Coturnix japonica; 0.02 mg/L with Daphnia magna; 37.2 mg/kg with Tagia sp. (chronic/long-term, duration: 56 days); 0.065 mg/L in the data set on Pimephales promelas. Moreover, the LEL with Typhlodromus pyri is 260 g/ha. The NOEL in the data set with Oryctolagus sp. came to 12.5 mg/kg-day; in the data set with Rattus norvegicus (chronic, histopathology: nonneoplastic), 13.8 mg/kg-day; with Rattus norvegicus (reproduction developmental, body weight) it was 1.3 mg/kg-day. The LC50 was over 778 mg/kg-day in the data set with Colinus virginianus (diet); 1.7 µg/mL (≈ 4.51 µM) with Oncorhynchus mykiss; over 684 mg/kg-day in the data set on Anas platyrhynchos (short-term, feed); over 1000 mg/kg with Tagia sp. (acute, duration: 14 days, mortality). Besides, the LD50 is over 2150 mg/kg-day in the data set with Colinus virginianus; over 2150 mg/kg-day in the data set with Anas platyrhynchos (acute, unspecified); over 100 µg/piece with Apis mellifera; 328 mg/kg-day in the data set on Rattus norvegicus (acute, oral, F, mortality).
